In patent publication US20140357512A1, “HISTONE DEACETYLASE (HDAC) BIOMARKERS IN MULTIPLE MYELOMA” (priority 2013, published 2014):

Test system: human myeloma cell line MM.1S
Assay: SILAC acetylated-lysine peptide profiling, HDAC inhibitor vs DMSO (light/heavy ratio)
Assay type: cell-based
Source text: An embodiment of the invention comprises utilizing the SILAC method in order to quantitate changes in protein expression between two or more populations of cells. The SILAC method is a technique based on mass spectrometry that detects differences in protein abundance among samples using non-radioactive isotopic labeling. The SILAC method is known in the art, and described in detail in Ong et al., “Stable Isotope Labeling by Amino Acids in Cell Culture, SILAC, as a Simple and Accurate Approach to Expression Proteomics”, Molecular & Cellular Proteomics, vol. 1, pp. 376-386 (2002), which is incorporated herein by reference in its entirety.
Briefly, the SILAC method involves growing two populations of cells in cell culture. The first population of cells is grown in growth media containing normal amino acids (“normal media”). The second population of cells is grown in media lacking a standard essential amino acid (such as lysine), but is then supplemented with a non-radioactive, isotopically labeled form of that essential amino acid (such as lysine labeled with ^13C atoms, rather than normal ^12C atoms), which is called “heavy media”. When the two populations of cells are each growing in the medium, they incorporate the amino acids into all of their proteins. The growth of cells maintained in the heavy media is no different from that in normal media. All peptides containing the heavy amino acids are heavier than their normal counterparts. The cells from each of the two populations of cells are lysed. The lysates from each of the two cell populations are then combined. The combined cell lysates are then analyzed by mass spectrometry. Pairs of chemically identical peptides of different stable isotope composition can be differentiated in a mass spectrometer due to their difference in mass. The ratio of peak intensities in the mass spectrum for such peptide pairs reflects the abundance ratio for the two proteins.
This example describes SILAC studies that were performed to compare the effects of three different HDAC inhibitors (Compound A, Compound B, and tubastatin A) to a control on a human multiple myeloma cell line. The HDAC inhibitors were also compared amongst themselves to determine differences in their effects.
A human myeloma cell line MM.1S was grown using either ^12C (light) or ^13C (heavy) lysine containing culture medium. The “heavy” cells were treated with DMSO as the control, and the “light” cells were treated with a single HDAC inhibitor at 37° C. for 6 hours. The heavy and light cells were lysed, and the lysates were mixed in 1:1 ratio and digested with the protease trypsin. The acetylated lysine containing peptides (due to the action of the HDAC inhibitor) in the digested peptide pool were captured by a non-specific anti-acetylated lysine antibody cocktail (the antibodies identify both light and heavy acetylated peptides), and subjected to mass spectrometry analysis in order to identify thousands of individual peptides.
Thousands of peptides were identified in pairs (^12C and ^13C) due to their known mass differences. The amino acid sequence and quantitative ratio (Light/Heavy) of a given peptide in two differentially treated cell lysates were then determined and annotated with their possible protein (gene) sources.
As stated above, three HDAC inhibitors (Compound A, Compound B, and Tubastatin A) were used. Thus, the SILAC method was performed three times, with a different HDAC inhibitor compared to a control each time. Accordingly, there are three pairs of quantitative data in the table below, i.e., Compound A:DMSO, Compound B:DMSO, and Tubastatin A:DMSO. A cut-off of 1.30 fold of change (increase or decrease) was then used to determine “changed” or “+” in the table, and any peptides with a fold of change less than 1.3 fold were determined to be “unchanged” or “0” in the table. Those peptides that were not identified were marked as “NA” in the table. […]

O=C(CCCCCCNC(=O)c1cnc(N(c2ccccc2)c2ccccc2)nc1)NO [Compound A, 2-(diphenylamino)-N-(7-(hydroxyamino)-7-oxoheptyl)pyrimidine-5-carboxamide]
light to heavy ratio (L/H ratio) of acetylated peptide GAGTDEK(ac)TLTR (SEQ ID NO: 621) (Annexin A6 [620], gene ANXA6, inhibitor:DMSO): 0.48 log 2
light to heavy ratio (L/H ratio), log 2 scale, acetylated peptide EFIEK(ac)YDK (SEQ ID NO: 779) (Annexin A6 [644], gene ANXA6, drug:DMSO): 1.00
light to heavy ratio (L/H ratio) of acetylated peptide DDNGK(ac)PYVLPSVR (SEQ ID NO: 579) (Aspartate aminotransferase mitochondrial [73], gene GOT2, inhibitor:DMSO): 0.43 log 2
light to heavy ratio (L/H ratio) of acetylated peptide LMEK(ac)EINGSK (SEQ ID NO: 517) (Atlastin-3 [309], gene ATL3, inhibitor:DMSO): −0.56 log 2
light to heavy ratio (L/H ratio) of acetylated peptide ELK(ac)EIQYGIR (SEQ ID NO: 540) (Branched-chain-amino-acid aminotransferase [337], gene BCAT2, inhibitor:DMSO): 0.39 log 2
light to heavy ratio (L/H ratio), log 2 scale, acetylated peptide ESCSK(ac)[…] (SEQ ID NO: 780) (Bromodomain and PHD finger-containing protein 3 [105], gene BRPF3, drug:DMSO): 1.00
L/H ratio of acetylated peptide FYGDEEK(ac)[…] (SEQ ID NO: 25) (CALR [62], log 2 scale, drug vs DMSO): 0.00
light to heavy ratio (L/H ratio) of acetylated peptide LQVLDPVPK(ac)PVIK (SEQ ID NO: 539) (CD48 antigen [133], gene CD48, inhibitor:DMSO): 0.39 log 2
light to heavy ratio (L/H ratio) of acetylated peptide AGLQVYNK(ac)CWK (SEQ ID NO: 260) (CD59 glycoprotein [63], CD59, drug:DMSO): 0.41 log 2
L/H ratio of acetylated peptide […](ac)R (SEQ ID NO: 26) (CLTC [637], log 2 scale, drug vs DMSO): 0.00
L/H ratio of acetylated peptide FK(ac)ESFAEMNR (SEQ ID NO: 1) (COX4I1 [87], log 2 scale, drug vs DMSO): 0.00
L/H ratio of acetylated peptide […](ac)QLCTIPR (SEQ ID NO: 27) (CREBBP [1216], log 2 scale, drug vs DMSO): 0.00
L/H ratio of acetylated peptide TNK(ac)NK(ac)SSISR (SEQ ID NO: 13) (CREBBP [1595:1597], log 2 scale, drug vs DMSO): 1.00
L/H ratio of acetylated peptide ALK(ac)DLYCHK (SEQ ID NO: 28) (CREM [240], log 2 scale, drug vs DMSO): 0.00
L/H ratio of acetylated peptide LYCPK(ac)CMDVYTPK (SEQ ID NO: 29) (CSNK2B [139], log 2 scale, drug vs DMSO): 0.00
light to heavy ratio (L/H ratio) of acetylated peptide NSFDCFK(ac)K (SEQ ID NO: 605) (Calcium-binding mitochondrial carrier protein Aralar2 [379], gene SLC25A13, inhibitor:DMSO): 0.46 log 2
light to heavy ratio (L/H ratio) of acetylated peptide FVLSSGK(ac)FYGDEEKDK (SEQ ID NO: 281) (Calreticulin [55], CALR, drug:DMSO): 0.58 log 2
light to heavy ratio (L/H ratio) of acetylated peptide VHVIFNYK(ac)GK (SEQ ID NO: 273) (Calreticulin [151], CALR, drug:DMSO): 0.48 log 2
light to heavy ratio (L/H ratio) of acetylated peptide NVLINK(ac)DIR (SEQ ID NO: 257) (Calreticulin [159], CALR, drug:DMSO): 0.39 log 2
light to heavy ratio (L/H ratio) of acetylated peptide TCDLVGEK(ac)GK (SEQ ID NO: 289) (Cation-dependent mannose-6-phosphate receptor [38], M6PR, drug:DMSO): 0.65 log 2
light to heavy ratio (L/H ratio) of acetylated peptide […](ac)GLLK (SEQ ID NO: 569) (Chloride intracellular channel protein 1 [131], gene CLIC1, inhibitor:DMSO): 0.41 log 2
light to heavy ratio (L/H ratio), log 2 scale, acetylated peptide GFSIPECQK(ac)LLPK (SEQ ID NO: 783) (Citrate synthase mitochondrial [103], gene CS, drug:DMSO): 1.00
light to heavy ratio (L/H ratio) of acetylated peptide […](ac)LR (SEQ ID NO: 566) (Citrate synthase mitochondrial [327], gene CS, inhibitor:DMSO): 0.41 log 2
light to heavy ratio (L/H ratio) of acetylated peptide EFALK(ac)HLPNDPMFK (SEQ ID NO: 583) (Citrate synthase mitochondrial [366], gene CS, inhibitor:DMSO): 0.43 log 2
light to heavy ratio (L/H ratio) of acetylated peptide SMSTEGLMK(ac)FVDSK (SEQ ID NO: 330) (Citrate synthase mitochondrial [459], CS, drug:DMSO): 0.00 log 2
light to heavy ratio (L/H ratio) of acetylated peptide VASK(ac)QLEEEDGSR (SEQ ID NO: 591) (Coatomer subunit gamma [238], gene COPG, inhibitor:DMSO): 0.44 log 2
light to heavy ratio (L/H ratio), log 2 scale, acetylated peptide MIYASSK(ac)DAIKK (SEQ ID NO: 763) (Cofilin-1 [121], gene CFL1, drug:DMSO): 0.93
light to heavy ratio (L/H ratio) of acetylated peptide AAEEVEAK(ac)FK (SEQ ID NO: 328) (Coiled-coil-helix-coiled-coil-helix domain-containing protein 3 mitochondrial [173], CHCHD3, drug:DMSO): 0.00 log 2
light to heavy ratio (L/H ratio) of acetylated peptide ASEIGEK(ac)YR (SEQ ID NO: 586) (Conserved hypothetical protein [484], gene KIAA0947, inhibitor:DMSO): 0.44 log 2
light to heavy ratio (L/H ratio) of acetylated peptide DHCVAHK(ac)LFNNLK (SEQ ID NO: 608) (Cytochrome b-c1 complex subunit 6 mitochondrial [85], gene UQCRH, inhibitor:DMSO): 0.46 log 2
light to heavy ratio (L/H ratio) of acetylated peptide LFDYFPK(ac)PYPNSEAAR (SEQ ID NO: 548) (Cytochrome c1 heme protein mitochondrial [177], gene CYC1, inhibitor:DMSO): 0.39 log 2
light to heavy ratio (L/H ratio) of acetylated peptide YFDEK(ac)IAK (SEQ ID NO: 563) (D-beta-hydroxybutyrate dehydrogenase mitochondrial [280], gene BDH1, inhibitor:DMSO): 0.41 log 2
L/H ratio of acetylated peptide FK(ac)[…] (SEQ ID NO: 30) (DAZAP1 [59], log 2 scale, drug vs DMSO): 0.00
L/H ratio of acetylated peptide APTIVGK(ac)SSLNPILFR (SEQ ID NO: 31) (DDOST [189], log 2 scale, drug vs DMSO): 0.00
L/H ratio of acetylated peptide FGNPGEK(ac)LVK (SEQ ID NO: 34) (DDX5 [40], log 2 scale, drug vs DMSO): 0.00
